Results on one compound are retold here after EP0541192A1, “Use of opiate antagonists for the treatment of endogen hyperinsulinemia” (Ferring Arzneimittel GmbH, priority 1991, dated 1993).

A short description of data set [1]: side effects / tolerability during treatment. Format: in vivo, Frauen. Conditions: 50 mg/Tag oral.
Data set [2] can be described thus: oral glucose tolerance test (oGTT) before and after 4 weeks of treatment. Type of data set: in vivo, Frauen. The following applies: 50 mg/Tag oral. How it is done: (§1) Die folgenden Untersuchungen wurden an vier gegenüber Insulin resistenten Frauen durchgeführt, welche ein Hyperandrogenämie litten. Das Alter der Frauen lag zwischen 16 und 33 Jahren und ihr Körpermasseindex (Body mass Index - BMI) reichte von 28 bis 41. Die Hyperandrogenämie wurde durch Bestimmung von LH, FSH, Prolactin, Testosteron, freien Testosteronen, SHBG und DHEAS im Serum diagnostiziert. Vor der Behandlung lagen die Testosteronwerte zwischen 0,4 und 1,65 ng/ml und die Insulinkonzentrationen betrugen von 25 bis 62 mcU/ml.
Die Insulinresistenz wurde durch orale Verabreichung von 400 ml einer Lösung nachgewiesen, welche eine Mono-Oligosaccharidmischung enthielt, die nach enzymatischer Hydrolyse im Gastrointestinaltrakt 100 g Glucose lieferte (Dextro-oGTT, Boehringer Mannheim). Während des oralen Glucose-Toleranz-Tests (oGTT) wurden vor der Kohlenhydratbelastung und danach 3 Stunden lang im Abstand von jeweils 15 Minuten Blutproben entnommen. In allen Proben wurde die Glucosekonzentration mit dem Hexokinase/Glucose-6-Phosphatdehydrogenase-Verfahren bestimmt. Ferner wurden die Insulin- und C-Peptidkonzentrationen mit handelsüblichen Radioimmun-Kits (Serono Diagnostic, Freiburg) bestimmt. Die Ergebnisse des oGTT wurden ausgewertet, indem das Verhältnis von Insulin zu Glucose berechnet wurde und die Flächen unter den Glucose-, Insulin- und C-Peptid-Kurven während des oGTT bestimmt wurden (vgl. Figur 1).
(§2) Als Opiat-Antagonist wurde Naltrexon (Ferring Arzneimittel GmbH, Kiel) in einer Dosis von 50 mg/Tag oral verabreicht. 4 Wochen nach Beginn der Naltrexon-Behandlung wurde nach dem gleichen Verfahren wie oben beschrieben ein zweiter oGTT durchgeführt und die Ergebnisse dieses Tests mit den vor Beginn der Behandlung erhaltenen Ergebnissen verglichen, wobei die Proben paarweise einem t-Test unterworfen wurden.

Data set [3] in a line: serum androgen and pituitary hormone levels during treatment. Type of data set: in vivo, Frauen. Conditions: 50 mg/Tag oral. The protocol:
as §1, §2
Im Gegensatz dazu blieben die Androgenkonzentrationen sowie die LH-, FSH- und Prolactin-Spiegel durch die Naltrexon-Behandlung unbeeinflußt.

For data set [4] the following is noted: general statement, no data; cited from earlier work.

As for `O=C1CC[C@@]2(O)[C@H]3Cc4ccc(O)c5c4[C@@]2(CCN3CC2CC2)C1O5` (stereo partly drawn) [Naltrexon, 17-(Cyclopropylmethyl)-4,5-epoxy-3,14-dihydroxymorphinan-6-on], the “Veränderungen des Blutbildes, der Leberenzyme und des Nierenstatus” value in data set [1] is listed as “nicht beobachtet”. The Nebenwirkungen result in data set [1] (one of four patients) is “Übelkeit mit Erbrechen und leichten Kopfschmerzen”. Further, the Verträglichkeit entry in data set [1] (three of four patients) is “gut vertragen”. In data set [2] (oGTT), the “Verhältnis von Insulin zu Glucose” value is “sank” and the “molare Verhältnis von C-Peptid zu Insulin” value was “stieg”. Further, the “Konzentration von C-Peptid” value in data set [2] (oGTT, reduced, but not to the same extent as insulin) was “reduziert”. Moreover, in data set [2] (four insulin-resistant hyperandrogenaemic women, oGTT vs. before treatment), the “Insulinspiegel nach Kohlenhydratbelastung” value is “beeindruckende Senkung”. Besides, in data set [3], the Androgenkonzentrationen entry was “unbeeinflußt”, the FSH-Spiegel entry is “unbeeinflußt”, the LH-Spiegel entry was “unbeeinflußt” and the Prolactin-Spiegel entry is “unbeeinflußt”. In data set [4], the “Verweildauer im Plasma” value is “lange”.
